Test results from PubChem BioAssay (NCI).
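Exposure lasted 48 hours, with cells grown in 96-well plates and compounds tested at five concentrations. The concentration for 50% growth inhibition is given as GI50. TGI: total growth inhibition.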

Assays:
Assay in all cases: inhibition of tumour cell growth, NCI panel, 48 h
HCC-2998 colon = system: HCC-2998 colon
HCT-15 colon = system: HCT-15 colon
MOLT-4 leukemia = system: MOLT-4 leukemia
OVCAR-8 ovarian = system: OVCAR-8 ovarian
UACC-257 melanoma = system: UACC-257 melanoma
OVCAR-3 ovarian = system: OVCAR-3 ovarian
MDA-MB-468 breast = system: MDA-MB-468 breast
SF-268 CNS = system: SF-268 CNS
OVCAR-4 ovarian = system: OVCAR-4 ovarian
M14 melanoma = system: M14 melanoma
A549 NSCLC = system: A549 NSCLC
RXF 393 renal = system: RXF 393 renal
MDA-MB-435 = system: MDA-MB-435
UO-31 renal = system: UO-31 renal
NCI-H226 lung = system: NCI-H226 lung
K-562 leukemia = system: K-562 leukemia
U251 CNS = system: U251 CNS
NCI-H460 lung = system: NCI-H460 lung
OVCAR-5 ovarian = system: OVCAR-5 ovarian
NCI-H23 lung = system: NCI-H23 lung
SK-MEL-2 melanoma = system: SK-MEL-2 melanoma
NCI-H522 lung = system: NCI-H522 lung
KM12 colon = system: KM12 colon
SW-620 colon = system: SW-620 colon
IGROV1 ovarian = system: IGROV1 ovarian
TK-10 renal = system: TK-10 renal
CCRF-CEM leukemia = system: CCRF-CEM leukemia
COLO 205 colon = system: COLO 205 colon
SNB-19 CNS = system: SNB-19 CNS
SK-OV-3 ovarian = system: SK-OV-3 ovarian

Compound COc1ccc(CCN2C(=O)/C(=C/c3csc(C#N)n3)SC2=S)cc1 has a GI50 (HCC-2998 colon) of 15.9 µM, a TGI (HCC-2998 colon) of 29.4 µM and a GI50 (HCT-15 colon) of 6.19 µM. The TGI (HCT-15 colon) was 19.7 µM, the GI50 (MOLT-4 leukemia) was 3.52 µM and the TGI (MOLT-4 leukemia) was 53.1 µM. It also gave a GI50 (OVCAR-8 ovarian) of 15.2 µM, a TGI (OVCAR-8 ovarian) of 29.7 µM and a GI50 (UACC-257 melanoma) of 11.7 µM. The TGI (UACC-257 melanoma) was 27.1 µM, the GI50 (OVCAR-3 ovarian) was 10.1 µM and the TGI (OVCAR-3 ovarian) was 21.7 µM. It also gave a GI50 (MDA-MB-468 breast) of 3.03 µM, a TGI (MDA-MB-468 breast) of 13.2 µM and a GI50 (SF-268 CNS) of 15 µM. For the same compound, the TGI (SF-268 CNS) was 32.7 µM, the GI50 (OVCAR-4 ovarian) was 15.5 µM and the TGI (OVCAR-4 ovarian) was 47 µM. It also gave a GI50 (M14 melanoma) of 11.5 µM, a TGI (M14 melanoma) of 25.1 µM and a GI50 (A549 NSCLC) of 21.3 µM. For the same compound, the TGI (A549 NSCLC) was 56.1 µM, the GI50 (RXF 393 renal) was 10.4 µM and the TGI (RXF 393 renal) was 22.1 µM. The GI50 (MDA-MB-435) was 12.5 µM, the TGI (MDA-MB-435) was 28.3 µM and the GI50 (UO-31 renal) was 10.8 µM. The TGI (UO-31 renal) was 22.6 µM, the GI50 (NCI-H226 lung) was 14.5 µM and the TGI (NCI-H226 lung) was 28.8 µM. For the same compound, the GI50 (K-562 leukemia) was 3.52 µM, the TGI (K-562 leukemia) was greater than 100 µM and the GI50 (U251 CNS) was 13.1 µM. The TGI (U251 CNS) was 26.4 µM, the GI50 (NCI-H460 lung) was 18.4 µM and the TGI (NCI-H460 lung) was 39 µM. For the same compound, the GI50 (OVCAR-5 ovarian) was 15.6 µM, the TGI (OVCAR-5 ovarian) was 29 µM and the GI50 (NCI-H23 lung) was 14.6 µM. It also gave a TGI (NCI-H23 lung) of 27.7 µM, a GI50 (SK-MEL-2 melanoma) of 12.2 µM and a TGI (SK-MEL-2 melanoma) of 24.9 µM. For the same compound, the GI50 (NCI-H522 lung) was 3.03 µM, the TGI (NCI-H522 lung) was 14 µM and the GI50 (KM12 colon) was 3.82 µM. The TGI (KM12 colon) was 14.1 µM, the GI50 (SW-620 colon) was 8.45 µM and the TGI (SW-620 colon) was 21.7 µM. It also gave a GI50 (IGROV1 ovarian) of 17.9 µM, a TGI (IGROV1 ovarian) of 34.6 µM and a GI50 (TK-10 renal) of 10.7 µM. It also gave a TGI (TK-10 renal) of 27.7 µM, a GI50 (CCRF-CEM leukemia) of 3.13 µM and a TGI (CCRF-CEM leukemia) of 9.66 µM. The GI50 (COLO 205 colon) was 16 µM, the TGI (COLO 205 colon) was 29.5 µM and the GI50 (SNB-19 CNS) was 14.9 µM. For the same compound, the TGI (SNB-19 CNS) was 28.1 µM and the GI50 (SK-OV-3 ovarian) was 18.8 µM.
